Patent publication US20260374756A1, “HETEROCYCLIC COMPOUNDS AS INHIBITORS OF MONOACYLGLYCEROL LIPASE (MAGL)” (Hoffmann-La Roche Inc., priority 2022, published 2026)

target: T1, hMAGL (Homo sapiens, UniProt Q99685); assay: 2-AG assay: MAGL inhibition, hydrolysis of 2-arachidonoylglycerol to arachidonic acid followed by mass spectrometry; type: biochemical
T1 sequence (Q99685 1-303): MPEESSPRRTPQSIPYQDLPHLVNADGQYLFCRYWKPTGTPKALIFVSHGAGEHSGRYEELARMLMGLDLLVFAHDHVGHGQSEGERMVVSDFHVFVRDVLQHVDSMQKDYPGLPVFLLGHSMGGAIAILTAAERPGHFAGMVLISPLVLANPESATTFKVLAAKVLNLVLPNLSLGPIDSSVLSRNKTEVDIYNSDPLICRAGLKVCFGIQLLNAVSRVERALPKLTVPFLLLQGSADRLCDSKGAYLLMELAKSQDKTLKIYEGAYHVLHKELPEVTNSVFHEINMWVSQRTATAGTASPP
Summary of the method: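 Read-out is LC-MS/MS of arachidonic acid released from 2-arachidonoylglycerol (8 μM final), normalised to d8-arachidonic acid internal standard after acetonitrile quench. Enzyme […] and compound were pre-mixed 15 min, then reacted 30 min, both at RT, in Tris/EDTA buffer with 0.01% Tween-20 and 2.5% DMSO.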

| Structure (SMILES) | IC50 [nM] |
| --- | --- |
| Cc1cc(C(F)F)n(CC2CC3(C2)CN(C(=O)N2CC4(CC(n5cnc(C6(O)CC6)n5)C4)C2)C3)n1 [Example 93, [6-[[5-(difluoromethyl)-3-methyl-pyrazol-1-yl]methyl]-2-azaspiro[3.3]heptan-2-yl]-[6-[3-(1-hydroxycyclopropyl)-1,2,4-triazol-1-yl]-2-azaspiro[3.3]heptan-2-yl]methanone] | 5.48 |
| Cn1nc(C2CC2)cc1CN1CC2(C1)CN(C(=O)N1CC3(CC(n4cnc(C5CC5)n4)C3)C1)C2 [Example 272, [6-[(5-cyclopropyl-2-methyl-pyrazol-3-yl)methyl]-2,6-diazaspiro[3.3]heptan-2-yl]-[6-(3-cyclopropyl-1,2,4-triazol-1-yl)-2-azaspiro[3.3]heptan-2-yl]methanone] | 7 |
| O=C(N1CC2(CC(n3cnc(C(F)(F)F)n3)C2)C1)N1CC2(CN(Cc3nc(C4CC4)cs3)C2)C1 [Example 239, [6-[(4-cyclopropylthiazol-2-yl)methyl]-2,6-diazaspiro[3.3]heptan-2-yl]-[6-[3-(trifluoromethyl)-1,2,4-triazol-1-yl]-2-azaspiro[3.3]heptan-2-yl]methanone] | 18.5 |
| Cn1nnc(CN2CC3(C2)CN(C(=O)N2CC4(CC(n5cnc(C6CC6)n5)C4)C2)C3)c1C(F)(F)F [Example 244, [6-(3-cyclopropyl-1,2,4-triazol-1-yl)-2-azaspiro[3.3]heptan-2-yl]-[6-[[1-methyl-5-(trifluoromethyl)triazol-4-yl]methyl]-2,6-diazaspiro[3.3]heptan-2-yl]methanone] | 22.9 |
| O=C(N1CC2(CC(n3cnc(C4(O)CC4)n3)C2)C1)N1CC2(CN(Cc3cnc(C(F)(F)F)s3)C2)C1 [Example 19] | 34.5 |
| O=C(N1CC2(CC(Cc3nc(C(F)(F)F)cs3)C2)C1)N1CC2(CC(n3cnc(C4(O)CC4)n3)C2)C1 [Example 106, [6-[3-(1-hydroxycyclopropyl)-1,2,4-triazol-1-yl]-2-azaspiro[3.3]heptan-2-yl]-[6-[[4-(trifluoromethyl)thiazol-2-yl]methyl]-2-azaspiro[3.3]heptan-2-yl]methanone] | 8.94 |
| Cc1sc(CN2CC3(C2)CN(C(=O)N2CC4(CC(n5cnc(C(F)(F)F)n5)C4)C2)C3)nc1C(F)(F)F [Example 54, [6-[[5-methyl-4-(trifluoromethyl)thiazol-2-yl]methyl]-2,6-diazaspiro[3.3]heptan-2-yl]-[6-[3-(trifluoromethyl)-1,2,4-triazol-1-yl]-2-azaspiro[3.3]heptan-2-yl]methanone] | 85.7 |
| Cc1onc(C2CC2)c1CN1CC2(C1)CN(C(=O)N1CC3(CC(n4cnc(C(F)(F)F)n4)C3)C1)C2 [Example 267, [6-[(3-cyclopropyl-5-methyl-isoxazol-4-yl)methyl]-2,6-diazaspiro[3.3]heptan-2-yl]-[6-[3-(trifluoromethyl)-1,2,4-triazol-1-yl]-2-azaspiro[3.3]heptan-2-yl]methanone] | 66.6 |
| O=C(N1CC2(CC(n3cnc(C4CC4)n3)C2)C1)N1CC2(CN(Cc3nnnn3CC(F)(F)F)C2)C1 [Example 198, [6-(3-cyclopropyl-1,2,4-triazol-1-yl)-2-azaspiro[3.3]heptan-2-yl]-[6-[[1-(2,2,2-trifluoroethyl)tetrazol-5-yl]methyl]-2,6-diazaspiro[3.3]heptan-2-yl]methanone] | 71.5 |
| O=C(N1CC2(CC(Cc3noc(C(F)(F)F)n3)C2)C1)N1CC2(CC(n3cnc(C4(O)CC4)n3)C2)C1 [Example 105] | 14.1 |
| O=C(N1CC2(CC(n3cnc(C(F)(F)F)n3)C2)C1)N1CC2(CN(Cc3ccn(CCC(F)(F)F)n3)C2)C1 [Example 312, [6-[3-(trifluoromethyl)-1,2,4-triazol-1-yl]-2-azaspiro[3.3]heptan-2-yl]-[6-[[1-(3,3,3-trifluoropropyl)pyrazol-3-yl]methyl]-2,6-diazaspiro[3.3]heptan-2-yl]methanone] | 183 |
| CC(C)(C)c1csc(CN2CC3(C2)CN(C(=O)N2CC4(CC(n5cnc(C6(O)CC6)n5)C4)C2)C3)n1 [Example 199, [6-[(4-tert-butylthiazol-2-yl)methyl]-2,6-diazaspiro[3.3]heptan-2-yl]-[6-[3-(1-hydroxycyclopropyl)-1,2,4-triazol-1-yl]-2-azaspiro[3.3]heptan-2-yl]methanone] | 6.7 |
| O=C(N1CC2(CC(Cc3n[nH]c(C(F)(F)F)n3)C2)C1)N1CC2(CC(n3cnc(C(F)(F)F)n3)C2)C1 [Example 9, [6-[3-(trifluoromethyl)-1,2,4-triazol-1-yl]-2-azaspiro[3.3]heptan-2-yl]-[6-[[5-(trifluoromethyl)-1H-1,2,4-triazol-3-yl]methyl]-2-azaspiro[3.3]heptan-2-yl]methanone] | 7.07 |
| O=C(N1CC2(CCN(Cc3ncc(C(F)F)s3)CC2)C1)N1CC2(CC(n3cnc(C(F)(F)F)n3)C2)C1 [Example 31, [7-[[5-(difluoromethyl)thiazol-2-yl]methyl]-2,7-diazaspiro[3.5]nonan-2-yl]-[6-[3-(trifluoromethyl)-1,2,4-triazol-1-yl]-2-azaspiro[3.3]heptan-2-yl]methanone] | 13.1 |
| O=C(N1CC2(CC(n3cnc(C4CC4)n3)C2)C1)N1CC2(CN(Cc3cnc(C(F)F)s3)C2)C1 [Example 279, [6-(3-cyclopropyl-1,2,4-triazol-1-yl)-2-azaspiro[3.3]heptan-2-yl]-[6-[[2-(difluoromethyl)thiazol-5-yl]methyl]-2,6-diazaspiro[3.3]heptan-2-yl]methanone] | 9.22 |

Now those with a lower IC50, led by results:

| IC50 [nM] | Structure (SMILES) |
| --- | --- |
| 4.16 | O=C(N1CC2(CC(Cn3cnc(C(F)(F)F)c3)C2)C1)N1CC2(CC(n3cnc(C4CC4)n3)C2)C1 [Example 40, [6-(3-cyclopropyl-1,2,4-triazol-1-yl)-2-azaspiro[3.3]heptan-2-yl]-[6-[[4-(trifluoromethyl)imidazol-1-yl]methyl]-2-azaspiro[3.3]heptan-2-yl]methanone] |
| 3.7 | Cc1cc(C(F)(F)F)n(CC2CC3(C2)CN(C(=O)N2CC4(CC(n5cnc(C(F)(F)F)n5)C4)C2)C3)n1 [Example 71, [6-[[3-methyl-5-(trifluoromethyl)pyrazol-1-yl]methyl]-2-azaspiro[3.3]heptan-2-yl]-[6-[3-(trifluoromethyl)-1,2,4-triazol-1-yl]-2-azaspiro[3.3]heptan-2-yl]methanone] |
| 3.05 | Cc1cc(C(F)F)nn1CC1CC2(C1)CN(C(=O)N1CC3(CC(n4cnc(C5(O)CC5)n4)C3)C1)C2 [Example 96, [6-[[3-(difluoromethyl)-5-methyl-pyrazol-1-yl]methyl]-2-azaspiro[3.3]heptan-2-yl]-[6-[3-(1-hydroxycyclopropyl)-1,2,4-triazol-1-yl]-2-azaspiro[3.3]heptan-2-yl]methanone] |
| 2.86 | O=C(N1CC2(CCN(Cc3ncc(C(F)F)s3)CC2)C1)N1CC2(CC(n3cnc(C4CC4)n3)C2)C1 [Example 32] |
| 1.62 | O=C(N1CC2(CC(n3cnc(C4CC4)n3)C2)C1)N1CC2(CN(Cc3snnc3C3CCC3)C2)C1 [Example 77, [6-[(4-cyclobutylthiadiazol-5-yl)methyl]-2,6-diazaspiro[3.3]heptan-2-yl]-[6-(3-cyclopropyl-1,2,4-triazol-1-yl)-2-azaspiro[3.3]heptan-2-yl]methanone] |
| 1.56 | O=C(N1CC2(CC(Cn3cnc(C(F)(F)F)c3)C2)C1)N1CC2(CC(c3cc(C4CC4)n[nH]3)C2)C1 [Example 39, [6-(3-cyclopropyl-1H-pyrazol-5-yl)-2-azaspiro[3.3]heptan-2-yl]-[6-[[4-(trifluoromethyl)imidazol-1-yl]methyl]-2-azaspiro[3.3]heptan-2-yl]methanone] |
| 0.85 | O=C(N1CC2(CC(Cc3nsc(C(F)(F)F)n3)C2)C1)N1CC2(CC(n3cnc(C(F)(F)F)n3)C2)C1 [Example 20, [6-[[5-(trifluoromethyl)-1,2,4-thiadiazol-3-yl]methyl]-2-azaspiro[3.3]heptan-2-yl]-[6-[3-(trifluoromethyl)-1,2,4-triazol-1-yl]-2-azaspiro[3.3]heptan-2-yl]methanone] |
| 0.41 | Cn1ncc(C(F)(F)F)c1CN1CCC2(CC1)CN(C(=O)N1CC3(CC(n4cnc(C5CC5)n4)C3)C1)C2 [Example 66, [6-(3-cyclopropyl-1,2,4-triazol-1-yl)-2-azaspiro[3.3]heptan-2-yl]-[7-[[2-methyl-4-(trifluoromethyl)pyrazol-3-yl]methyl]-2,7-diazaspiro[3.5]nonan-2-yl]methanone] |
| 0.33 | O=C(N1CC2(CC(Cc3cc(C(F)F)n[nH]3)C2)C1)N1CC2(CC(c3cc(C4CC4)n[nH]3)C2)C1 [Example 294, [6-(3-cyclopropyl-1H-pyrazol-5-yl)-2-azaspiro[3.3]heptan-2-yl]-[6-[[3-(difluoromethyl)-1H-pyrazol-5-yl]methyl]-2-azaspiro[3.3]heptan-2-yl]methanone] |
| 0.32 | Cn1ncc(C(F)(F)F)c1CN1CCC2(CC1)CN(C(=O)N1CC3(CC(c4cc(C5CC5)n[nH]4)C3)C1)C2 [Example 64, [6-(3-cyclopropyl-1H-pyrazol-5-yl)-2-azaspiro[3.3]heptan-2-yl]-[7-[[2-methyl-4-(trifluoromethyl)pyrazol-3-yl]methyl]-2,7-diazaspiro[3.5]nonan-2-yl]methanone] |
| 0.14 | O=C(N1CC2(CC(Cc3cn(C4CC4)nc3C(F)(F)F)C2)C1)N1CC2(CC(n3cnc(C4CC4)n3)C2)C1 [Example 62, [6-(3-cyclopropyl-1,2,4-triazol-1-yl)-2-azaspiro[3.3]heptan-2-yl]-[6-[[1-cyclopropyl-3-(trifluoromethyl)pyrazol-4-yl]methyl]-2-azaspiro[3.3]heptan-2-yl]methanone] |
| 0.08 | O=C(N1CC2(CC(Cc3cn(CC(F)(F)F)nc3C(F)(F)F)C2)C1)N1CC2(CC(n3cnc(C4CC4)n3)C2)C1 [Example 122] |
